Measured values as given in patent US20160000911A1, “COMBINATION THERAPY OF A TYPE II ANTI-CD20 ANTIBODY WITH INCREASED ANTIBODY DEPENDENT CELLULAR CYTOTOXITY (ADCC)” (ROCHE GLYCART AG, priority 2008, published 2016).

Tests used:
[1] = tested on: WSU-DLCL2 human B-Cell Non-Hodgkin-Lymphoma (NHL); test: Tumor growth inhibition study in vivo, WSU-DLCL2 xenograft (Example 1); design: species or system SCID beige mice
Description: Antibody buffer included histidine, trehalose and polysorbate 20.
Cyclophposphamide and vincristine were purchased as clinical formulation from Baxter Oncology GmbH, Halle, Germany or medac, Gesellschaft für klinische Spezialpräparate mbH, Hamburg, Germany, respectively. Dilution was adjusted from reconstituted stock solution.
WSU-DLCL2 human Non-Hodgkin-Lymphoma (NHL) cells were kindly provided from Hoffmann-La Roche, Inc., Nutley, N.J., USA. […] Passage 4 was used for transplantation. Cells were co-injected with Matrigel.
Continuous health monitoring was carried out on regular basis.
Animal treatment started at the day of randomisation 9 days after cell transplantation. […] The corresponding vehicle was administered on the same days. Cyclophosphamide and vincristine were given i.v. once weekly on day 9, 15, 23, 30, 37, 44, 51 and 58 at 25 mg/kg or 0.25 mg/kg, respectively. In the combination therapy groups, both antibodies were administered 24 hours after the chemotherapeutic agents on day 10, 16, 24, 31, 38, 45, 52 and 59.

[2] = target: T1, CD20 on Raji cells (ATCC-No. CCL-86) (Homo sapiens, UniProt P11836); test: Ratio of the binding capacities to CD20 on Raji cells compared to rituximab (direct immunofluorescence, Cy5, FACSArray); conditions: MFI at EC50 of Cy5-labeled antibodies, 30 min at 4° C.
T1 construct: generated by direct immunofluorescence using the Burkitt's lymphoma cell line Raji (ATCC-No. CCL-86); host or cells: Raji (Burkitt's lymphoma cell line)
T1 sequence (P11836 1-297): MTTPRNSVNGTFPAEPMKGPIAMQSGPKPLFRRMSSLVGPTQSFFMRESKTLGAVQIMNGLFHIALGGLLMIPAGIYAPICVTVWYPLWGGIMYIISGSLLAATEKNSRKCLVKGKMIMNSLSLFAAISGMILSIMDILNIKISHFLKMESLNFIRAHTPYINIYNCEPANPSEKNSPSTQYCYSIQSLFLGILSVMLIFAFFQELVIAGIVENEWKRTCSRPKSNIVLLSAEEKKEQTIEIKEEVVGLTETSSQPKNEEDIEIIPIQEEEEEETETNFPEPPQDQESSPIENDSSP
Experimental: MFI is the mean fluorescent intensity. The “Cy5-labeling ratio” as used herein means the number of Cy5-label molecules per molecule antibody.
Raji cells (ATCC-No. CCL-86) were maintained in culture in RPMI-1640 medium (PanBiotech GmbH, Cat.-No. PO4-18500) containing 10% FCS (Gibco, Cat.-No. 10500-064). […] 5*10^5 cells per sample were stained for 30 min at 4° C. Afterwards, cells were washed in culture medium. Propidium iodide (PI) staining was used to exclude dead cells.
Then the ratio of the binding capacities to CD20 on Raji cells (ATCC-No. CCL-86) is calculated according to the following formula: […]

binding capacity to CD20 on Raji cells compared to rituximab [2]: reduces binding capacity
Substance: anti-CD20 antibody B-HH6-B-KV1 GE: Type II anti-CD20 antibody; humanized B-Ly1, glycoengineered B-HH6-B-KV1 with increased ADCC (WO 2005/044859, WO 2007/031875)
tumor growth inhibition ([1]; day 35 after cell transplantation, compared to the control group, i.v. once weekly, antibodies 30 mg/kg, cyclophosphamide 25 mg/kg, vincristine 0.25 mg/kg): 85%
Tumor growth delay, T − C value ([1]; median time to reach 1500 mm^3, treatment minus control, until day 64 after cell transplantation): 19 days
